Reference: patent EP0790293A1, “Lubricant” (Asahi Kasei Kogyo Kabushiki Kaisha, priority 1991, dated 1992)

Experiments:
Assay type in all cases: physicochemical
[1] = Miscibility test with HFC-134a (sealed glass tube, visual evaluation); details: for Temperature range for being miscible with HFC-134a lower limit temperature (°C) / Temperature range for being miscible with HFC-134a upper limit temperature (°C): 0.2 g oil, about 1.5 g HFC-134a; for Temperature range for being miscible with HFC-134a upper limit temperature (°C): measured up to 90 °C
[2] = Kinetic viscosity (E-type rotational viscometer, Cannon-Fenske viscometer)
Description: The kinetic viscosity of the lubricant oil for use in the present invention can be determined by measuring the viscosity by means of various viscometers. As the viscometer to be used for determining the kinetic viscosity, there can be mentioned a capillary viscometer, such as a Ubbellohde viscometer, an Ostward viscometer or a Cannon-Fenske viscometer, a rotational viscometer, and a falling ball viscometer. In the present invention, an E-type rotational viscometer (manufactured by Tokyo Keiki, Japan) and a Cannon-Fenske viscometer were used.

[3] = Miscibility with mineral oil; details: weight ratio 50/50
[4] = Miscibility test with HFC-32
Protocol: (§1) First, 0.2 g of the oil [S1] was charged into a glass tube and then, the whole was cooled by liquid nitrogen. The interior of the glass tube was evacuated and, about 1.5 g of HFC-134a was introduced into the glass tube. The glass tube was sealed and placed in a temperature-controlled water bath. When the temperature was equilibriated, in the manner in which the miscibility of the oil [S1] with the fluoroalkane was visually evaluated, a miscibility limit was measured in the temperature range of from room temperature to 90 °C. A lower miscibility limit at temperatures lower than room temperature was likewise measured by cooling with a methanol cooling medium. The results are shown in Table 3 together with the results of Comparative Example 1.
The miscibility of the oil [S2] obtained in Referential Example 2 with HFC-32 (CH2F2) was evaluated in the same manner as in Example 1.

[5] = Insulation breakdown voltage, JIS C2101; details: oil purified with activated carbon
Protocol: 100 g of activated carbon (Calgon® CPG, manufactured by Calgon Far East, Japan) dried in vacuum at 150 °C for 3 hours was dispersed in 400 g of R-113 to obtain a suspension, and 200 g of the oil [S1] obtained in Example 40 was added thereto, followed by agitation at room temperature overnight. The activated carbon was removed by filtration and, then, the R-113 was dis tilled off, followed by simple distillation of the oil, thereby obtaining 140 g of a colorless, transparent oil. The oil obtained according to the present purification method was analyzed by gas chromatography. […] Further, each of the volume resistivities of the oil at 20 °C before and after purification was measured in substantially the same manner as in Example 45. […] The above results are shown in Table 13, together with the results of Comparative Examples 17 through 20.

[6] = Volume resistivity, JIS C2101 (insulating oil test); details: 20 °C; for volume resistivity: oil as obtained in the Referential Example
Protocol: Volume resistivity of the oil [S1] obtained in Referential Example 1 was measured according to the method of JIS C2101 (insulating oil test).

[7] = Evaluation of heat resistance (sealed tube test); details: 175 °C for 10 days with HFC-134a and steel, copper, aluminum pieces
Protocol: A glass tube was charged with 0.6 ml of purified oil [S1], HFC-134a and test pieces of steal copper and aluminum, and the glass tube was then sealed to enclose a refrigerant composition therein. The refrigerant composition was heated at 175 °C for 10 days. After the heating, any change of the hue of the refrigerant composition and any change of the surfaces of the metal pieces were examined.
The heat resistances of various compounds of the present invention were evaluated according to the sealed tube test in the same manner as described above. […]

[8] = Miscibility test with HFC-125
Protocol: as §1
The miscibility of the oil [S2] obtained in Referential Example 2 with HFC-125 (CF3CHF2) was evaluated in the same manner as in Example 1.

[9] = Miscibility with ester oil; details: weight ratio 50/50
[10] = Miscibility with polypropylene glycol; details: weight ratio 50/50; polypropylene glycol number average molecular weight 1000
[11] = Miscibility test with HFC-227ea
Protocol: as §1
The miscibility of the oil [S2] obtained in Referential Example 2 with HFC-227ea (CF3CHFCF3) was evaluated in the same manner as in Example 1.

[12] = Miscibility with fluoroalkanes in general
Description: The present inventors have examined the miscibilities of perfluoropolyethers having the various structures indicated below, inclusive of perfluoropolyethers (trade name: Fomblin Y-06, Y-25 and Y-45, manufactured and sold by Nippon Montedison Co., Ltd., Japan) employed in Examples of Japanese Patent Application Laid-Open Specification Nos. 60-96684 and 1-118598, with a fluoroalkane, such as HFC-134a, HFC-134 and HFC-152a. […] Accordingly, it has been confirmed that such perfluoropolyethers are not suitable as a lubricant for use in refrigeration equipment employing a fluoroalkane, such as HFC-134a, HFC-134 and HFC-152a, as a refrigerant. [drawing 1] wherein each of q1, q2, q3, q4, q5 and q6 is a positive integer.
The miscibilities of commercially available perfluoropolyether and 2,2-bis(4-ethoxyphenyl)propane with each of the above various fluoroalkane were evaluated, in substantially the same manner as in Example 1. The results are shown in Table 3 together with data of the kinetic viscosity at 40 °C.

[13] = mixing ratio [S2]/[S2]+HFC-134a 5 % by weight
[14] = mixing ratio [S2]/[S2]+HFC-134a 10 % by weight
[15] = mixing ratio [S2]/[S2]+HFC-134a 30 % by weight
[16] = mixing ratio [S2]/[S2]+HFC-134a 50 % by weight
[17] = mixing ratio [S2]/[S2]+HFC-134a 80 % by weight

## CC(C)(c1ccc(OC(F)F)cc1)c1ccc(OC(F)F)cc1 [[S7]]
[1]
  Temperature range for being miscible with HFC-134a lower limit temperature (°C): -78 or below °C
  Temperature range for being miscible with HFC-134a upper limit temperature (°C): 90 or above °C
[2]
  Kinetic viscosity (cSt)40°C: 4 cSt

## CC(C)(c1ccc(OC(F)(F)C(F)Cl)cc1)c1ccc(OC(F)(F)C(F)Cl)cc1 (centres unmarked) [[S1]]
[3]
  miscibility with mineral oil: completely miscible
[4]
  lower limit temperature to be miscible with HFC-32: -56 °C
  upper limit temperature to be miscible with HFC-32: ≥ 90 °C
[5]
  insulation breakdown voltage: ≥ 50 kV/2.5 cm
[6]
  volume resistivity: 3.0 x 10^11 Ωcm
[6]; oil of Example 40 ([S1]) or Example 44 ([S2]) before adsorbent treatment
  Volume resistivity (Ωcm) before purification: 1.0 x 10^11 Ωcm
[6]; purified with activated carbon (Calgon® CPG)
  volume resistivity after purification: 2.2 x 10^13 Ωcm
[2]
  Kinetic viscosity (cSt)40°C: 56.8 cSt
  kinetic viscosity at 100 °C: 5.34 cSt
[7]
  After sealed tube test IR: not changed at all
  After sealed tube test hue: not changed
  After sealed tube test metal surface: not changed
  After sealed tube test viscosity: not changed at all

## CC(C)(c1ccc(OC(F)(F)C(F)F)cc1)c1ccc(OC(F)(F)C(F)F)cc1 [[S2]]
[4]
  lower limit temperature to be miscible with HFC-32: ≤ -78 °C
  upper limit temperature to be miscible with HFC-32: 90 °C
[8]
  lower limit temperature to be miscible with HFC-125: ≤ -78 °C
  upper limit temperature to be miscible with HFC-125: 90 °C
[9]
  miscibility with ester oil: completely miscible
[10]
  miscibility with polypropylene glycol: completely miscible
[1]; [13]
  Temperature range to be miscible (°C) lower limit temperature: -78 or below °C
  Temperature range to be miscible (°C) upper limit temperature: 90 or above °C
[1]; [14]
  Temperature range to be miscible (°C) lower limit temperature: -78 or below °C
  Temperature range to be miscible (°C) upper limit temperature: 90 or above °C
[1]; [15]
  Temperature range to be miscible (°C) lower limit temperature: -78 or below °C
  Temperature range to be miscible (°C) upper limit temperature: 90 or above °C
[1]; [16]
  Temperature range to be miscible (°C) lower limit temperature: -78 or below °C
  Temperature range to be miscible (°C) upper limit temperature: 90 or above °C
[1]; [17]
  Temperature range to be miscible (°C) lower limit temperature: -78 or below °C
  Temperature range to be miscible (°C) upper limit temperature: 90 or above °C
[6]
  volume resistivity: 5.7 x 10^11 Ωcm
[11]
  lower limit temperature to be miscible with HFC-227ea: ≤ -78 °C
  upper limit temperature to be miscible with HFC-227ea: 90 °C
[2]
  Kinetic viscosity (cSt)40°C: 26.2 cSt
  kinetic viscosity at 100 °C: 3.40 cSt
[7]
  After sealed tube test IR: not changed
  After sealed tube test hue: not changed
  After sealed tube test metal surface: not changed
  After sealed tube test viscosity: not changed

## CC(C)(c1ccc(OC(F)(F)CF)cc1)c1ccc(OC(F)(F)CF)cc1 [[S9]]
[1]
  Temperature range for being miscible with HFC-134a lower limit temperature (°C): -78 or below °C
  Temperature range for being miscible with HFC-134a upper limit temperature (°C): 90 or above °C
[2]
  Kinetic viscosity (cSt)40°C: 50 cSt

## Cc1cc(C(C)(C)c2ccc(OC(F)(F)C(F)F)c(C)c2)ccc1OC(F)(F)C(F)F [[S5]]
[1]
  Temperature range for being miscible with HFC-134a lower limit temperature (°C): -78 or below °C
  Temperature range for being miscible with HFC-134a upper limit temperature (°C): 90 or above °C
[6]
  volume resistivity: 2.9 x 10^12 Ωcm
[2]
  Kinetic viscosity (cSt)40°C: 115 cSt
[7]
  After sealed tube test IR: not changed
  After sealed tube test hue: not changed
  After sealed tube test metal surface: not changed
  After sealed tube test viscosity: not changed

## CCOc1ccc(C(C)(C)c2ccc(OCC)cc2)cc1 [[S14], 2,2-bis(4-ethoxyphenyl)propane]
[12]
  miscibility with fluoroalkanes, such as HFC-134a: little miscibility
